The record followed here is ChEMBL document CHEMBL4033684, “Development of nonsteroidal glucocorticoid receptor modulators based on N-benzyl-N-(4-phenoxyphenyl)benzenesulfonamide scaffold” (Bioorg Med Chem, 2017).

What all share (assay type): cell-based
Data set [1] deals with T1, Glucocorticoid receptor (Homo sapiens, UniProt P04150).
T1 sequence (P04150 whole entry): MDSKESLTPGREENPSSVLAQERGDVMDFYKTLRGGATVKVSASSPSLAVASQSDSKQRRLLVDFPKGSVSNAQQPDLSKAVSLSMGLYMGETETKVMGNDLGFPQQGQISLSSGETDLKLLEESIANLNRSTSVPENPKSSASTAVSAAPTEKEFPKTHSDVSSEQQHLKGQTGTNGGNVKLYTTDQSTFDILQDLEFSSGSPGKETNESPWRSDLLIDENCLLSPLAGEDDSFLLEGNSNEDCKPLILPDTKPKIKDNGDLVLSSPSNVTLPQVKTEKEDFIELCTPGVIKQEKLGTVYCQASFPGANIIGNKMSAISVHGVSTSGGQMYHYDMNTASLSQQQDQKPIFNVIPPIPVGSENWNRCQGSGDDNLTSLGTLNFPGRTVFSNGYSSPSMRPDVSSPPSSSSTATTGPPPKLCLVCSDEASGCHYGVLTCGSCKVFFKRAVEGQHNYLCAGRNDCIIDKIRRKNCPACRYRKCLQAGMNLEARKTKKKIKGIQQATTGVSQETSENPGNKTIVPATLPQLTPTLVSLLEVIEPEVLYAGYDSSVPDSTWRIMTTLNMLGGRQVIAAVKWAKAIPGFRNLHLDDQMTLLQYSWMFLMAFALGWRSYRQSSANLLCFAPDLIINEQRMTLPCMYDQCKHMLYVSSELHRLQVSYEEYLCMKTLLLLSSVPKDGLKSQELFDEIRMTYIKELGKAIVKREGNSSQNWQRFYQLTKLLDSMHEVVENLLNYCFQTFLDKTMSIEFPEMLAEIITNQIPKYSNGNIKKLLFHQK
Kind of data set: (§1) Antagonist activity at human GRalpha expressed in HEK293 cells assessed as inhibition of dexamethasone-induced response after 24 hrs by luciferase reporter gene assay. On the technique in general: In a reporter assay the amount or activity of a reporter protein is the signal.

In data set [2] the target is T2, Glucocorticoid receptor (Homo sapiens) (UniProt P04150).
T2 sequence (whole entry): T1 sequence (P04150 whole entry)
The experiment in a line: Antagonist activity at human GRalpha expressed in HEK293 cells assessed as inhibition of dexamethasone-induced response at 30 uM after 24 hrs by luciferase reporter gene assay relative to control.

For data set [3], the target named is T1, Glucocorticoid receptor. Kind of data set: Transactivation of human GRalpha expressed in HEK293 cells after 24 hrs by luciferase reporter gene assay. The settings on record: hek293, 24 h.
Data set [4] deals with T2, Glucocorticoid receptor (Homo sapiens). Kind of data set: Transrepression of human GRalpha expressed in HEK293 cells co-expressing pGL4.32 assessed as inhibition of TNFalpha-stimulated NF-kB activity at 30 uM preincubated for 4 hrs followed by TNFalpha addition measured after 3 hrs by luciferase reporter gene assay relative to control.
Data set [5] has the same target. The data set is described as §1.

The source made the active and inactive calls. The rule behind the calls is not given here.

Take `N#Cc1ccc(S(=O)(=O)N(CCCc2ccccc2)c2ccc(Oc3ccccc3)cc2)cc1`: the IC50 at Glucocorticoid receptor [1] is over 30 µM. The inhibition in data set [2] is under 50%. Further, the Activity result on Glucocorticoid receptor [3] is on record as “Not Active”.
Take `O=S(=O)(c1ccc(OC(F)(F)F)cc1)N(Cc1ccccc1)c1ccc(Oc2ccccc2)cc1`: at Glucocorticoid receptor [1], the IC50 stood at 7.48 µM. At Glucocorticoid receptor [3], the Activity result is “Not Active”.
Turning to `N#Cc1ccc(S(=O)(=O)N(Cc2cccc(Cl)c2)c2ccc(Oc3ccccc3)cc2)cc1`, the IC50 at Glucocorticoid receptor [1] was 5.42 µM. The Activity entry on Glucocorticoid receptor [3] is reported as “Not Active”.
For `CN(C)c1ccc(S(=O)(=O)N(Cc2ccccc2)c2ccc(Oc3ccccc3)cc2)cc1`, in data set [4], the inhibition result is “inactive”. Moreover, the Activity entry at Glucocorticoid receptor [3] is “Not Active”.
With `CC(C)(C)c1ccc(S(=O)(=O)N(Cc2ccccc2)c2ccc(Oc3ccccc3)cc2)cc1`, the IC50 on Glucocorticoid receptor [1] was over 30 µM. In data set [2], the inhibition is under 50%. Also, the Activity result at Glucocorticoid receptor [3] is recorded as “Not Active”.
For `Cc1ccc(S(=O)(=O)N(Cc2ccccc2)c2ccc(Oc3ccccc3)cc2)cc1`, the IC50 on Glucocorticoid receptor [1] is 2.02 µM. In addition, the Activity entry at Glucocorticoid receptor [3] is “Not Active”.
Take `N#Cc1ccc(S(=O)(=O)N(Cc2ccc(Cl)cc2)c2ccc(Oc3ccccc3)cc2)cc1`: the IC50 at Glucocorticoid receptor [1] is over 30 µM. In addition, in data set [2], the inhibition is under 50%. Also, at Glucocorticoid receptor [3], the Activity result is listed as “Not Active”.
In the case of `N#Cc1ccc(S(=O)(=O)N(Cc2cccc3ccccc23)c2ccc(Oc3ccccc3)cc2)cc1`, on Glucocorticoid receptor [1], the IC50 was over 30 µM. In data set [2], the inhibition was under 50%. Besides, the Activity entry at Glucocorticoid receptor [3] is “Not Active”.
On to `CC(C)(C)c1ccc(CN(c2ccc(Oc3ccccc3)cc2)S(=O)(=O)c2ccc(C#N)cc2)cc1`, for which, in data set [2], the inhibition entry was “inactive”. Moreover, the Activity result at Glucocorticoid receptor [3] is on record as “Not Active”.
Consider `O=[N+]([O-])c1ccc(S(=O)(=O)N(Cc2ccccc2)c2ccc(Oc3ccccc3)cc2)cc1`, for which, at Glucocorticoid receptor [1], the IC50 turned out to be 5.77 µM. The Activity entry at Glucocorticoid receptor [3] is on record as “Not Active”.
On to `COc1cccc(C(=O)Nc2ccc(Oc3ccc(O)cc3)c(C)c2)c1`, for which the inhibition result in data set [5] is “inactive”. On Glucocorticoid receptor [3], the Activity entry is listed as “Not Active”.
Take `O=S(=O)(c1ccc(F)cc1)N(Cc1ccccc1)c1ccc(Oc2ccccc2)cc1`: the IC50 at Glucocorticoid receptor [1] stood at 2.04 µM. Besides, the Activity entry at Glucocorticoid receptor [3] is recorded as “Not Active”.
`Nc1ccc(S(=O)(=O)N(Cc2ccccc2)c2ccc(Oc3ccccc3)cc2)cc1`: in data set [4], the inhibition was 64%. For the same compound, the IC50 on Glucocorticoid receptor [1] is 3.15 µM. Besides, the Activity result at Glucocorticoid receptor [3] is “Not Active”.
On to `O=S(=O)(c1ccc(C(F)(F)F)cc1)N(Cc1ccccc1)c1ccc(Oc2ccccc2)cc1`, for which, at Glucocorticoid receptor [1], the IC50 is over 30 µM. In addition, the inhibition in data set [2] was under 50%. For the same compound, at Glucocorticoid receptor [3], the Activity result was “Not Active”.
For `N#Cc1ccc(S(=O)(=O)N(Cc2ccc(Br)cc2)c2ccc(Oc3ccccc3)cc2)cc1`, the IC50 at Glucocorticoid receptor [1] came out at 7.87 µM. The Activity result at Glucocorticoid receptor [3] is “Not Active”.
On to `Nc1cccc(S(=O)(=O)N(Cc2ccccc2)c2ccc(Oc3ccccc3)cc2)c1`, for which, in data set [4], the inhibition was found to be 39%. The Activity entry on Glucocorticoid receptor [3] was “Not Active”.
As to `N#Cc1cccc(S(=O)(=O)N(Cc2ccccc2)c2ccc(Oc3ccccc3)cc2)c1`, in data set [2], the inhibition result was “inactive”. The Activity entry at Glucocorticoid receptor [3] was “Not Active”.
Regarding `COc1ccccc1Oc1ccc(N(Cc2ccccc2)S(=O)(=O)c2ccc(C#N)cc2)cc1`, the inhibition entry in data set [2] is “inactive”. The Activity result on Glucocorticoid receptor [3] is on record as “Not Active”.
Regarding `Nc1ccccc1S(=O)(=O)N(Cc1ccccc1)c1ccc(Oc2ccccc2)cc1`, the inhibition in data set [4] was 46%. The Activity entry on Glucocorticoid receptor [3] is “Not Active”.
For `COc1ccc(Oc2ccc(N(Cc3ccccc3)S(=O)(=O)c3ccc(C#N)cc3)cc2)cc1`, on Glucocorticoid receptor [1], the IC50 is over 30 µM. Moreover, the inhibition in data set [2] was under 50%. The Activity result at Glucocorticoid receptor [3] is “Not Active”.
`O=S(=O)(c1ccc(Cl)cc1)N(Cc1ccccc1)c1ccc(Oc2ccccc2)cc1`: the IC50 on Glucocorticoid receptor [1] turned out to be 2.4 µM. Further, the Activity result on Glucocorticoid receptor [3] is “Not Active”.
Consider `N#Cc1ccc(S(=O)(=O)N(Cc2ccccc2Cl)c2ccc(Oc3ccccc3)cc2)cc1`, for which the IC50 at Glucocorticoid receptor [1] was over 30 µM. Moreover, the Activity result at Glucocorticoid receptor [3] was “Not Active”.
With `N#Cc1ccc(S(=O)(=O)N(CCc2ccccc2)c2ccc(Oc3ccccc3)cc2)cc1`, on Glucocorticoid receptor [1], the IC50 is over 30 µM. Also, the inhibition in data set [2] is under 50%. For the same compound, the Activity result at Glucocorticoid receptor [3] is given as “Not Active”.
Turning to `CCN(CC)c1ccc(S(=O)(=O)N(Cc2ccccc2)c2ccc(Oc3ccccc3)cc2)cc1`, the inhibition entry in data set [4] was “inactive”. For the same compound, the Activity entry at Glucocorticoid receptor [3] is “Not Active”.
For the compound `CNc1ccc(S(=O)(=O)N(Cc2ccccc2)c2ccc(Oc3ccccc3)cc2)cc1`, in data set [4], the inhibition entry was “inactive”. Further, at Glucocorticoid receptor [3], the Activity entry was “Not Active”.
With `Cc1ccc(CN(c2ccc(Oc3ccccc3)cc2)S(=O)(=O)c2ccc(C#N)cc2)cc1`, the IC50 on Glucocorticoid receptor [1] is over 30 µM. For the same compound, the inhibition in data set [2] is under 50%. For the same compound, the Activity result at Glucocorticoid receptor [3] is given as “Not Active”.
With `COc1ccc(S(=O)(=O)N(Cc2ccccc2)c2ccc(Oc3ccccc3)cc2)cc1`, at Glucocorticoid receptor [1], the IC50 was 1.87 µM. Besides, the Activity entry on Glucocorticoid receptor [3] is recorded as “Not Active”.
Turning to `O=S(=O)(Nc1ccc(Oc2ccccc2)cc1)c1cccc(C(F)(F)F)c1`, the IC50 at Glucocorticoid receptor [1] was 11.7 µM. On Glucocorticoid receptor [3], the Activity entry is listed as “Not Active”.
For the compound `N#Cc1ccc(S(=O)(=O)N(Cc2ccc3ccccc3c2)c2ccc(Oc3ccccc3)cc2)cc1`, on Glucocorticoid receptor [1], the IC50 was over 30 µM. The inhibition in data set [2] is under 50%. For the same compound, at Glucocorticoid receptor [3], the Activity entry is recorded as “Not Active”.
Taken in the same sequence, the figures for `N#Cc1ccc(S(=O)(=O)N(Cc2ccc(F)cc2)c2ccc(Oc3ccccc3)cc2)cc1` were over 30 µM, under 50% and “Not Active”.
On to `O=S(=O)(c1ccc(Br)cc1)N(Cc1ccccc1)c1ccc(Oc2ccccc2)cc1`, for which the IC50 on Glucocorticoid receptor [1] is over 30 µM. Moreover, in data set [2], the inhibition was under 50%. Further, the Activity entry on Glucocorticoid receptor [3] is reported as “Not Active”.
Take `N#Cc1ccccc1S(=O)(=O)N(Cc1ccccc1)c1ccc(Oc2ccccc2)cc1`: the IC50 on Glucocorticoid receptor [1] is over 30 µM. Also, in data set [2], the inhibition is under 50%. For the same compound, on Glucocorticoid receptor [3], the Activity result was “Not Active”.
For `O=S(=O)(c1ccccc1)N(Cc1ccccc1)c1ccc(Oc2ccccc2)cc1`, the IC50 at Glucocorticoid receptor [1] came out at 3.59 µM. In addition, the Activity result on Glucocorticoid receptor [3] is “Not Active”.
With `COc1ccc(CN(c2ccc(Oc3ccccc3)cc2)S(=O)(=O)c2ccc(C#N)cc2)cc1`, the inhibition entry in data set [2] was “inactive”. Also, on Glucocorticoid receptor [3], the Activity result is recorded as “Not Active”.
On to `CCNc1ccc(S(=O)(=O)N(Cc2ccccc2)c2ccc(Oc3ccccc3)cc2)cc1`, for which, in data set [4], the inhibition result was “inactive”. On Glucocorticoid receptor [3], the Activity result is “Not Active”.
As for `N#Cc1ccc(S(=O)(=O)N(CC2CC2)c2ccc(Oc3ccccc3)cc2)cc1`, in data set [2], the inhibition result was “inactive”. For the same compound, the Activity entry at Glucocorticoid receptor [3] is reported as “Not Active”.
On to `CC(=O)Nc1ccc(S(=O)(=O)N(Cc2ccccc2)c2ccc(Oc3ccccc3)cc2)cc1`, for which the inhibition in data set [4] came to 60%. The IC50 at Glucocorticoid receptor [1] stood at 1.97 µM. The Activity entry on Glucocorticoid receptor [3] was “Not Active”.
Take `COc1cccc(Oc2ccc(N(Cc3ccccc3)S(=O)(=O)c3ccc(C#N)cc3)cc2)c1`: in data set [2], the inhibition entry was “inactive”. On Glucocorticoid receptor [3], the Activity result is recorded as “Not Active”.
For the compound `O=S(=O)(c1ccc(S(F)(F)(F)(F)F)cc1)N(Cc1ccccc1)c1ccc(Oc2ccccc2)cc1`, the IC50 at Glucocorticoid receptor [1] was over 30 µM. In data set [2], the inhibition is under 50%. For the same compound, the Activity entry on Glucocorticoid receptor [3] is on record as “Not Active”.
On to `COC(=O)Nc1ccc(S(=O)(=O)N(Cc2ccccc2)c2ccc(Oc3ccccc3)cc2)cc1`, for which the inhibition in data set [4] stood at 32%. For the same compound, the IC50 on Glucocorticoid receptor [1] was found to be 2.11 µM. For the same compound, on Glucocorticoid receptor [3], the Activity entry is “Not Active”.

One may read the IC50 as the concentration at which inhibition is half-maximal. As a reminder, the inhibition is the percentage by which the read-out fell short of the control.
